From PubChem BioAssay (NCI)
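Method: 48-hour compound exposure of cells in 96-well plates, five concentrations, linear interpolation of endpoints. At the GI50, growth is halved. TGI: concentration producing complete growth inhibition.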 Where a SMILES comes first, the peptide text is derived from it. The star is where a group is joined. Fmoc = O=C(OCC1c2ccccc2-c2ccccc21)*; Boc = CC(C)(C)OC(=O)*

Key:
Test in all cases: NCI anticancer screen, dose series, 48 h
[1] = system: MDA-MB-231 breast
[2] = system: SK-MEL-28 melanoma
[3] = system: A549 NSCLC
[4] = system: HT29 colon
[5] = system: MCF7 breast
[6] = system: NCI/ADR-RES ovarian
[7] = system: NCI-H23 lung
[8] = system: SN12C renal
[9] = system: CAKI-1 renal
[10] = system: NCI-H522 lung

CC(C)(C)OC(=O)NCCCCC(NC(=O)OCC1c2ccccc2-c2ccccc21)C(=O)N1CCCC1C(=O)NCC(N)=O (stereo not drawn) (Fmoc-Lys(Boc)-Pro-Gly-NH2; configuration not given here)
TGI [1]: > 100 µM
TGI [2]: > 100 µM
TGI [3]: > 100 µM
TGI [4]: > 100 µM
TGI [5]: > 100 µM
TGI [6]: > 100 µM
TGI [7]: > 100 µM
TGI [8]: 30.2 µM
TGI [9]: 30.1 µM

O=C1/C(=C/c2cccc(Br)c2)CSC/C1=C\c1cccc(Br)c1
TGI [10]: 4.14 µM
TGI [1]: 48.9 µM
TGI [2]: 7.12 µM
TGI [3]: 41.5 µM
TGI [4]: 5.67 µM
TGI [5]: 20.5 µM
TGI [6]: 25.5 µM
TGI [7]: 9.03 µM
TGI [8]: 5.22 µM
TGI [9]: 6.06 µM

Cc1cc(C)c2c(n1)S(=O)(=O)N(CCCN1CCN(c3cccc(C(F)(F)F)c3)CC1)c1c-2nn(C)c1C
TGI [10]: > 100 µM
TGI [1]: > 100 µM
TGI [2]: > 100 µM
TGI [3]: > 100 µM
TGI [4]: 52 µM
TGI [5]: > 100 µM
TGI [6]: > 100 µM
TGI [7]: > 100 µM
TGI [8]: > 100 µM
TGI [9]: > 100 µM

CN1C(=O)[C@@H]2[C@@H]3c4ccccc4N(S(=O)(=O)C(F)(F)F)[C@@H]3c3[nH]c4ccccc4c3[C@@H]2C1=O
TGI [1]: > 100 µM
TGI [2]: > 100 µM
TGI [3]: > 100 µM
TGI [4]: > 100 µM
TGI [5]: > 100 µM
TGI [6]: > 100 µM
TGI [7]: > 100 µM
TGI [8]: > 100 µM
TGI [9]: > 100 µM

CC(C)C1=CCC2C(=C1)CCC1C(C)(C(=O)O)CCCC21C (centres undefined) (tested in a mixture with another compound)
TGI [10]: > 100 µM
TGI [1]: > 100 µM
TGI [2]: > 100 µM
TGI [3]: > 100 µM
TGI [4]: > 100 µM
TGI [5]: > 100 µM
TGI [6]: > 100 µM
TGI [7]: > 100 µM
TGI [8]: > 100 µM
TGI [9]: > 100 µM

CCCCN1C(=O)c2c(-c3sccc3N)sc(-c3sccc3N)c2C1=O
TGI [10]: > 100 µM
TGI [1]: 97.3 µM
TGI [2]: 36.7 µM
TGI [3]: > 100 µM
TGI [4]: 44.5 µM
TGI [5]: > 100 µM
TGI [6]: > 83.2 µM
TGI [7]: > 100 µM
TGI [8]: > 55 µM
TGI [9]: > 100 µM

O=S(=O)(O)ON=C1c2ccccc2-c2ccccc21
TGI [10]: > 100 µM
TGI [1]: > 100 µM
TGI [2]: > 100 µM
TGI [3]: > 100 µM
TGI [4]: > 100 µM
TGI [5]: > 100 µM
TGI [6]: > 100 µM
TGI [7]: > 100 µM
TGI [8]: > 100 µM
TGI [9]: > 100 µM

O=C(/C=C/c1ccc(O)c(O)c1)c1cc(O)cc(O)c1
TGI [10]: 3.73 µM
TGI [1]: 28.8 µM
TGI [2]: 31.2 µM
TGI [3]: > 100 µM
TGI [4]: 39 µM
TGI [5]: 12.7 µM
TGI [6]: 47.7 µM
TGI [7]: 26.4 µM
TGI [8]: 26.2 µM
TGI [9]: > 100 µM

Cc1c2cnccc2c(C)c2c1c1ccccc1n2CCCCCCNCc1ccccc1
TGI [10]: 3.63 µM
TGI [2]: 4.41 µM
TGI [3]: 3.74 µM
TGI [4]: 3.13 µM
TGI [5]: 3.22 µM
TGI [7]: 3.64 µM
TGI [8]: 3.27 µM
TGI [9]: 3.48 µM

CCOC(=O)c1c(N2CCCC2)[nH]c(=O)c(C(c2ccco2)c2c(O)c(C(=O)OCC)c(N3CCCC3)[nH]c2=O)c1O
TGI [10]: > 100 µM
TGI [1]: > 100 µM
TGI [2]: > 100 µM
TGI [3]: > 100 µM
TGI [4]: > 100 µM
TGI [5]: > 100 µM
TGI [6]: > 100 µM
TGI [7]: > 100 µM
TGI [8]: > 100 µM
TGI [9]: > 100 µM

Cc1cccnc1/N=C/c1c(O)n(C)c(=O)[nH]c1=O
TGI [10]: > 100 µM
TGI [2]: > 100 µM
TGI [3]: > 100 µM
TGI [4]: > 100 µM
TGI [5]: > 100 µM
TGI [7]: > 100 µM
TGI [8]: > 100 µM
TGI [9]: > 100 µM

CCCCNC(=S)Nc1nc(C(=O)NNC(=S)NC2CCCCC2)cs1
TGI [10]: > 100 µM
TGI [1]: > 100 µM
TGI [3]: > 100 µM
TGI [4]: > 100 µM
TGI [5]: > 100 µM
TGI [6]: > 100 µM
TGI [7]: > 100 µM
TGI [8]: > 100 µM
TGI [9]: > 100 µM

CO/N=C(\C)COc1ccc2c(=O)c(-c3ccccc3)coc2c1
GI50 [10]: 22.2 µM
TGI [10]: 79 µM
GI50 [1]: 20.5 µM
TGI [1]: 40.9 µM
GI50 [2]: > 100 µM
TGI [2]: > 100 µM
GI50 [3]: 27.1 µM
TGI [3]: > 100 µM
GI50 [4]: > 100 µM
TGI [4]: > 100 µM
GI50 [5]: 39 µM
TGI [5]: > 100 µM
GI50 [6]: 14.5 µM
TGI [6]: 50 µM
GI50 [7]: 26.4 µM
TGI [7]: 89 µM
GI50 [8]: 30.1 µM
TGI [8]: 68.9 µM

CCc1ccc2nc(-c3ccc(O)cc3)sc2c1
TGI [10]: 18.3 µM
TGI [1]: 29.9 µM
TGI [3]: 44.9 µM
TGI [4]: 30.2 µM
TGI [5]: 46.4 µM
TGI [6]: 32.9 µM
TGI [7]: 34.1 µM
TGI [8]: 27.7 µM
TGI [9]: 26.4 µM

Cc1cc(NC[C@H](O)[C@H](O)[C@H](O)CO)c(Sc2cc(=O)[nH]c(=O)[nH]2)cc1C
TGI [10]: > 62.5 µM
TGI [1]: > 62.5 µM
TGI [2]: > 62.5 µM
TGI [3]: > 62.5 µM
TGI [4]: > 62.5 µM
TGI [5]: > 62.5 µM
TGI [6]: > 62.5 µM
TGI [7]: > 62.5 µM
TGI [8]: > 62.5 µM
TGI [9]: > 62.5 µM

Cn1c2ccccc2c2c(=O)[nH]c(=O)[nH]c21
TGI [10]: > 100 µM
TGI [1]: > 100 µM
TGI [2]: > 100 µM
TGI [3]: > 100 µM
TGI [4]: > 100 µM
TGI [5]: > 100 µM
TGI [6]: > 100 µM
TGI [7]: > 100 µM
TGI [8]: > 100 µM
TGI [9]: > 100 µM

Cc1ccc(OC2CC(n3cnc4ncnc(Cl)c43)OC2Oc2ccc(C)cc2)cc1 (centres undefined)
TGI [10]: > 100 µM
TGI [1]: 50.2 µM
TGI [2]: > 100 µM
TGI [3]: 82.5 µM
TGI [4]: > 100 µM
TGI [5]: 29.9 µM
TGI [6]: 64.9 µM
TGI [7]: 82.5 µM
TGI [8]: > 100 µM
TGI [9]: 5.93 µM

O=C1CCCC/C1=C\c1ccc(Br)cc1
TGI [10]: 31.1 µM
TGI [1]: 37.7 µM
TGI [2]: 31.6 µM
TGI [3]: 67.7 µM
TGI [5]: 7.4 µM
TGI [6]: 12.2 µM
TGI [7]: 33.2 µM
TGI [8]: 41.5 µM
TGI [9]: 32.1 µM

CCCCCCCCCCCCCC[S+](C)C
TGI [10]: 4.33 µM
TGI [1]: 4.64 µM
TGI [2]: 8.5 µM
TGI [3]: 4.14 µM
TGI [4]: 4.93 µM
TGI [5]: 4.67 µM
TGI [6]: > 10 µM
TGI [7]: 4.09 µM
TGI [8]: 3.24 µM
TGI [9]: > 10 µM

CCOC(=O)C(C(=S)Nc1ccccc1)c1nn2c(=O)cc(C)nc2s1 (centres undefined)
TGI [10]: 53.9 µM
TGI [1]: 70 µM
TGI [2]: 53.4 µM
TGI [3]: > 100 µM
TGI [4]: 41.4 µM
TGI [5]: 37.8 µM
TGI [6]: 67.2 µM
TGI [7]: 89.5 µM
TGI [8]: > 100 µM
TGI [9]: 84.7 µM
